Assay results published in patent US9861703B2 (Jinan Platinum Pharmatech Co. Ltd., priority 2013, dated 2018).

Legend:
[1] = tested on: human liver cancer cell line H7402; assay: MTT proliferation inhibition, H7402; assay type: cell-based; conditions: 48 h
Experimental: (§1) Human leukemia cell line K562, clear-cell ovarian carcinoma cell line ES-2, human prostate cancer cell line PC-3, human breast cancer cell line MCF-7, cell line Hela, human liver cancer cell line H7402 and human ovarian cancer cell line 3-AO were transferred into a culture flask and were cultured in a medium at 37° C. in a 5% CO2 and saturation humidity. One bottle of cells in logarithmic growth phase was picked out and was blew and beaten to be uniform with a pipette, then took some cell suspension solution to prepare blood counting plate smear to count cells under inverted microscope, and then adjusted the cell number to be 1×10^5/mL by adding some culture medium. Cells were seeded on a 96-well plate on which also drug tests performed. Blank control group, negative control group, positive control group and drug test group were established on the plate while the surrounding wells of the plate were not used (but filled with sterile PBS), wherein the blank control groups were prepared by addition of culture medium 150 μL per well, the negative control groups were prepared by addition of cell suspension solution 100 μL per well and culture medium 50 μL per well, the positive control groups were prepared by addition of cell suspension solution 100 μL per well and positive control drug solution 50 μL per well, the drug test groups were prepared by addition of cell suspension solution 100 μL per well and test compound solution 50 μL per well, and there were 5 different concentrations of drug in the positive control group and the drug test group respectively: 0.01, 0.1, 1, 10, 100 μmol·L^−1, each concentration was established with 3 parallel wells. After the drug was added, the 96-well plate was incubated for 48 h at 37° C. in a CO2 incubator of 5% CO2 and saturation humidity. Upon completion of the incubation, 20 μL MTT solution (concentration was 5 mg/mL) was added to each well and incubated for an additional 4 h, and after the 96-well plate was centrifuged at 2000 rpm for 30 min, medium of each well was suck out carefully and removed and 100 μL DMSO was added instead, followed by vibrating on a tablet shaker for 15 min to re-dissolve formazan crystals completely. OD value of each well was measured at 570 nm wavelength using an enzyme-linked immunosorbent assay reader to calculate cellular proliferation inhibitory ratio of each drug in different concentrations. And half-inhibitory concentration (IC50) was calculated using statistical software SPSS 16.0, wherein the cellular proliferation inhibitory ratio can be calculated as following equation: […]

[2] = tested on: human prostate cancer cell line PC-3; assay: MTT proliferation inhibition, PC-3; assay type: cell-based; conditions: 48 h
Experimental: as §1

[3] = tested on: 7 cell lines (ES-2, K562, PC-3, MCF-7, Hela, H7402, 3-AO); assay: MTT proliferation inhibition, all 7 tumor cell lines (summary in words); assay type: cell-based
Experimental: as §1

[4] = tested on: clear-cell ovarian carcinoma cell line ES-2; assay: MTT proliferation inhibition, ES-2; assay type: cell-based; conditions: for EC50: 48 h
Experimental: as §1

Aminopeptidase N = target: T1, Aminopeptidase N (Sus scrofa, UniProt P15145); assay: Inhibition activity against enzyme in vitro (aminopeptidase N, L-Leu-p-nitroanilide substrate); assay type: biochemical; conditions: for IC50: 37° C., 0.5 h, absorbance 405 nm, PBS pH 7.2, read-out: IC50(μM) APN
T1 construct: purchased Sigma
T1 sequence (P15145 1-963): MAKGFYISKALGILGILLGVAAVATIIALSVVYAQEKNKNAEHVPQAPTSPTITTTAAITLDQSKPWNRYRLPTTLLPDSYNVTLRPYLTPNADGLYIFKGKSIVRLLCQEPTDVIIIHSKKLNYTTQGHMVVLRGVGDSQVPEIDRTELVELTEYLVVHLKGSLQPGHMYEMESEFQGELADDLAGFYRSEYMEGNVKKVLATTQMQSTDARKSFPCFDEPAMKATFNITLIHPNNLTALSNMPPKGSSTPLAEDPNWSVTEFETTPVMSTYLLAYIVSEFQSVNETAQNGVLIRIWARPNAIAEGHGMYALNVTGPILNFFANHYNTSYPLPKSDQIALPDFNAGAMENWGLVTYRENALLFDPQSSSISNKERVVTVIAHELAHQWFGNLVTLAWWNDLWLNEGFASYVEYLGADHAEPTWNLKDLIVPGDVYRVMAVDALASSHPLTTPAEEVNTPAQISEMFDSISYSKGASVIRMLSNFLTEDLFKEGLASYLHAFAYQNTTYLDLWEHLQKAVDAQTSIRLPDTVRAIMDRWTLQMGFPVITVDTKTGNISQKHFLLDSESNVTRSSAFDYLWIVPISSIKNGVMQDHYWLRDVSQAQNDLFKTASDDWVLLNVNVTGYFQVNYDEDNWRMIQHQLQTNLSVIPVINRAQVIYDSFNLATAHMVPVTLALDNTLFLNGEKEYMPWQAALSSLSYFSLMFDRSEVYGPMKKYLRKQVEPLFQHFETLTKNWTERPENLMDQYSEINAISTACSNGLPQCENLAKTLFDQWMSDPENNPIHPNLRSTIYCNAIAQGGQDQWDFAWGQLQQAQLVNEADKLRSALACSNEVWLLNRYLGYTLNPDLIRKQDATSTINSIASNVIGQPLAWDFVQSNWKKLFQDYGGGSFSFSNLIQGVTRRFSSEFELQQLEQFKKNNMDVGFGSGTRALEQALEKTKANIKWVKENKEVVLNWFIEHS
Experimental: Aminopeptidase N and L-Leu-p-nitroanilide as substrate were purchased from Sigma cooperation.
Preparation of Buffer Solution: 12.89 g Na2HPO4.12H2O and 2.18 g NaH2PO4.2H2O were dissolved in a 1000 mL volumetric flask, then the mixture was diluted to 1000 mL with fresh distilled water to obtain 50 mM Phosphate Buffer solution (PBS, pH 7.2), which was kept at room temperature to spare.
Aminopeptidase N was dissolved in the buffer solution to obtain 0.1 IU/mL solution.
The substrate was dissolved in DMSO to obtain a […] solution, which was kept in refrigerator to spare.
The aminopeptidase N solution 10 μL, the substrate solution 5 μL and compound with different concentration 40 μL were added into a 96-well cell plate, and then adjusted to 200 μL with phosphate buffer saline solution (pH 7.2). […] And the substrate solution 5 μL of blank group was adjusted to 200 μL with buffer solution. The mixture was incubated at 37° C. for 0.5 h, and absorbance was then determined at 405 nm wavelength Inhibitory ratio can be calculated as follows: […]
According to concentration of compound and corresponding inhibitory ratio, the IC50 value was calculated by using a fitting curve of Origin 7.5 software.

liver cancer H22 = assay: Inhibition assay of intravenous administration against liver cancer H22 (Example 33); conditions: tail intravenous injection; for Number of mice alive: 7 mice per group, two cycles; for Tumor weight / inhibitory ratio (%): sacrificed after 13 days
Experimental: Extracted the ascites from H22 ascites tumour bearing mice, washed the ascites with sterile PBS for three times and then resuspended the cells with sterile PBS (cells counts: 3.75×10^7 cells/mL), inoculated it into right oxter of Kunming mice 100 uL per mouse.
The H22 tumor-bearing mice were randomized to 4 groups (7 mice per group) after being weighted. […] The size of tumor was measured by using a vernier calliper and weight of mouse by using an electronic balance at the beginning and ending of every cycle, then calculated their mean value. The mice were sacrificed after 13 days and the tumors were taken out and weighted. Tumor volume and inhibitory ratio were calculated as the following equation (L and W referred to length and width of tumor respectively): […]

CC(C)C[C@H](NC(=O)[C@@H](O)[C@H](N)Cc1ccccc1)C(=O)OCn1cc(F)c(=O)[nH]c1=O.Cl [BC-01, (S)-(5-fluoro-2,4-dioxo-3,4-dihydropyrimidinyl-1(2H))methyl-2-((2S,3R)-3-(amino)-2-hydroxy-4-phenylbutyryl)-4-methylpentanoate hydrochloride]
EC50 [1]: 1.86 µM
EC50 [2]: 10.7 µM
anti-proliferation effect against all the tumor cells [3]: obvious anti-proliferation effect
EC50 [4]: 2.53 µM
inhibitory activity against aminopeptidase N compared with positive control ubenimex (Aminopeptidase N): comparable activity with ubenimex
IC50 (Aminopeptidase N): 6.98 µM
Number of mice alive (liver cancer H22; 50 mg/kg/d): 7
Body weight(g) Beginning (liver cancer H22; 50 mg/kg/d): 30.32 ± 1.57 g
Body weight(g) Ending (liver cancer H22; 50 mg/kg/d): 31.53 ± 4.71 g
Tumor weight (liver cancer H22; 50 mg/kg/d): 0.58 ± 0.12 g
inhibitory ratio (%) (liver cancer H22; 50 mg/kg/d): 57.66%
Number of mice alive (liver cancer H22; 70 mg/kg/d): 7
Body weight(g) Beginning (liver cancer H22; 70 mg/kg/d): 30.00 ± 1.15 g
Body weight(g) Ending (liver cancer H22; 70 mg/kg/d): 31.05 ± 1.78 g
Tumor weight (liver cancer H22; 70 mg/kg/d): 0.37 ± 0.08 g
inhibitory ratio (%) (liver cancer H22; 70 mg/kg/d): 73.00%

CC(C)C[C@H](NC(=O)[C@@H](O)[C@H](N)Cc1ccccc1)C(=O)NCC(=O)OCn1cc(F)c(=O)[nH]c1=O.Cl [BC-02, (5-fluoro-2,4-dioxo-3,4-dihydropyrimidinyl-1(2H))methyl-2-((S)-2-((2S,3R)-3-amino-2-hydroxy-4-phenylbutanamido)-4-methylpentanamido)acetate hydrochloride]
EC50 [1]: 11 µM
EC50 [2]: 3.45 µM
anti-proliferation effect against all the tumor cells [3]: obvious anti-proliferation effect
proliferation inhibition activity against ES-2 [4]: great proliferation inhibition activity
EC50 [4]: 1.34 µM
inhibitory activity against aminopeptidase N compared with positive control ubenimex (Aminopeptidase N): much more potent than the positive control drug ubenimex
IC50 (Aminopeptidase N): 0.38 µM
Number of mice alive (liver cancer H22; 70 mg/kg/d): 7
Body weight(g) Beginning (liver cancer H22; 70 mg/kg/d): 31.81 ± 4.99 g
Body weight(g) Ending (liver cancer H22; 70 mg/kg/d): 32.83 ± 4.64 g
Tumor weight (liver cancer H22; 70 mg/kg/d): 0.63 ± 0.01 g
inhibitory ratio (%) (liver cancer H22; 70 mg/kg/d): 54.31%
